Test results: patent US10206394B2, “Herbicidal compounds” (Syngenta Participations AG, priority 2014, dated 2019)
Where two headings read alike, the source gives them in different places.

How the values were obtained:
Test in all cases: Glasshouse assay for herbicidal activity (pre- and post-emergence), percentage phytotoxicity
Type in all cases: in vivo
[1] = system: Echinochloa crus-galli (ECHCG); conditions: Echinochloa crus-galli
Method: (§1) Test—Glasshouse Assay for Herbicidal Activity
(§2) Seeds of a variety of monocotyledonous and dicotyledonous test plants are sown in standard soil in pots. The plants are cultivated for one day (for pre-emergence (PRE)) or for about 12 days (for post-emergence (POST)) under controlled conditions in a glasshouse (warm climate species at 24/18° C., cool climate species at 20/16° C., both at day/night; 16 hours light; 65% humidity).
(§3) The test plants are then grown on, in a glasshouse (greenhouse) under controlled conditions (warm climate species at 24/18° C., cool climate species at 20/16° C., both at day/night; 16 hours light; 65% humidity) and are watered twice daily. 15 days after application of the test herbicide (15 DAA) (for post-emergence), and 20 days after application of the test herbicide (20 DAA) (for pre-emergence), the test plants are evaluated visually, and an assessed percentage phytotoxicity score is given for each herbicidal application on each plant species (with 100%=total damage to plant; 0%=no damage to plant).
(§4) The plant species tested are as follows: Alopecurus myosuroides (ALOMY), Avena fatua (AVEFA), Lolium perenne (LOLPE), Echinochloa crus-galli (ECHCG).

Avena fatua (AVEFA) = conditions: Avena fatua
Method: as §1, §2, §3, §4

[2] = system: Alopecurus myosuroides (ALOMY); conditions: Alopecurus myosuroides
Method: as §1, §2, §3, §4

Lolium perenne (LOLPE) = conditions: Lolium perenne
Method: as §1, §2, §3, §4

[3] = post-emergence, 360 h, 250 g/ha, post-emergence, 15 DAA, visual assessment (100%=total damage, 0%=no damage), read-out: Post-emergence herbicidal activity (percentage phytotoxicity) ECHCG POST
[4] = pre-emergence, 480 h, 250 g/ha, pre-emergence, 20 DAA, visual assessment (100%=total damage, 0%=no damage), read-out: Pre-emergence herbicidal activity (percentage phytotoxicity) ECHCG PRE
[5] = post-emergence, 360 h, 250 g/ha, post-emergence, 15 DAA, visual assessment (100%=total damage, 0%=no damage), read-out: Post-emergence herbicidal activity (percentage phytotoxicity) AVEFA POST
[6] = pre-emergence, 480 h, 250 g/ha, pre-emergence, 20 DAA, visual assessment (100%=total damage, 0%=no damage), read-out: Pre-emergence herbicidal activity (percentage phytotoxicity) AVEFA PRE
[7] = post-emergence, 360 h, 250 g/ha, post-emergence, 15 DAA, visual assessment (100%=total damage, 0%=no damage), read-out: Post-emergence herbicidal activity (percentage phytotoxicity) ALOMY POST
[8] = pre-emergence, 480 h, 250 g/ha, pre-emergence, 20 DAA, visual assessment (100%=total damage, 0%=no damage), read-out: Pre-emergence herbicidal activity (percentage phytotoxicity) ALOMY PRE
[9] = post-emergence, 360 h, 250 g/ha, post-emergence, 15 DAA, visual assessment (100%=total damage, 0%=no damage), read-out: Post-emergence herbicidal activity (percentage phytotoxicity) LOLPE POST
[10] = pre-emergence, 480 h, 250 g/ha, pre-emergence, 20 DAA, visual assessment (100%=total damage, 0%=no damage), read-out: Pre-emergence herbicidal activity (percentage phytotoxicity) LOLPE PRE
[11] = post-emergence, 360 h, Rate 250 g/ha, post-emergence, visual assessment 15 DAA, 100%=total damage, 0%=no damage, read-out: Post-emergence herbicidal activity (percentage phytotoxicity) ECHCG POST
[12] = pre-emergence, 480 h, Rate 250 g/ha, pre-emergence, visual assessment 20 DAA, 100%=total damage, 0%=no damage, read-out: Pre-emergence herbicidal activity (percentage phytotoxicity) ECHCG PRE
[13] = post-emergence, 360 h, Rate 250 g/ha, post-emergence, visual assessment 15 DAA, 100%=total damage, 0%=no damage, read-out: Post-emergence herbicidal activity (percentage phytotoxicity) AVEFA POST
[14] = pre-emergence, 480 h, Rate 250 g/ha, pre-emergence, visual assessment 20 DAA, 100%=total damage, 0%=no damage, read-out: Pre-emergence herbicidal activity (percentage phytotoxicity) AVEFA PRE
[15] = post-emergence, 360 h, Rate 250 g/ha, post-emergence, visual assessment 15 DAA, 100%=total damage, 0%=no damage, read-out: Post-emergence herbicidal activity (percentage phytotoxicity) ALOMY POST
[16] = pre-emergence, 480 h, Rate 250 g/ha, pre-emergence, visual assessment 20 DAA, 100%=total damage, 0%=no damage, read-out: Pre-emergence herbicidal activity (percentage phytotoxicity) ALOMY PRE
[17] = post-emergence, 360 h, Rate 250 g/ha, post-emergence, visual assessment 15 DAA, 100%=total damage, 0%=no damage, read-out: Post-emergence herbicidal activity (percentage phytotoxicity) LOLPE POST
[18] = pre-emergence, 480 h, Rate 250 g/ha, pre-emergence, visual assessment 20 DAA, 100%=total damage, 0%=no damage, read-out: Pre-emergence herbicidal activity (percentage phytotoxicity) LOLPE PRE

Row | SMILES | pest or weed control at 250 g/ha [1, 3] | pest or weed control at 250 g/ha [1, 4] | pest or weed control at 250 g/ha (Avena fatua (AVEFA); [5]) | pest or weed control at 250 g/ha (Avena fatua (AVEFA); [6]) | pest or weed control at 250 g/ha [2, 7] | pest or weed control at 250 g/ha [2, 8] | pest or weed control at 250 g/ha (Lolium perenne (LOLPE); [9]) | pest or weed control at 250 g/ha (Lolium perenne (LOLPE); [10]) | pest or weed control at 250 g/ha [1, 11] | pest or weed control at 250 g/ha [1, 12] | pest or weed control at 250 g/ha (Avena fatua (AVEFA); [13]) | pest or weed control at 250 g/ha (Avena fatua (AVEFA); [14]) | pest or weed control at 250 g/ha [2, 15] | pest or weed control at 250 g/ha [2, 16] | pest or weed control at 250 g/ha (Lolium perenne (LOLPE); [17]) | pest or weed control at 250 g/ha (Lolium perenne (LOLPE); [18]) | further results
1 | C=CCC(C)(C)NC(=O)CC1CC(=O)C(c2c(C)cc(C)cc2C)C1=O (stereo not shown) [Compound B27] | 40% | 60% | 70% | 20% | 70% | 30% | 70% | 60% |  |  |  |  |  |  |  |  | 
2 | Cc1cc(C)c(C2C(=O)CC(CC(=O)NC3CCc4ccccc43)C2=O)c(C)c1 (stereo not shown) [Compound A106] |  |  |  |  |  |  |  |  |  |  |  |  |  |  |  |  | pest or weed control at 250 g/ha ([1]; post-emergence, 360 h, Rate 250 g/ha, post-emergence, assessed visually 15 DAA, 100%=total damage, 0%=no damage, read-out: Post-emergence herbicidal activity (percentage phytotoxicity) ECHCG POST): 20%; pest or weed control at 250 g/ha ([1]; pre-emergence, 480 h, Rate 250 g/ha, pre-emergence, assessed visually 20 DAA, 100%=total damage, 0%=no damage, read-out: Pre-emergence herbicidal activity (percentage phytotoxicity) ECHCG PRE): 20%; pest or weed control at 250 g/ha (Avena fatua (AVEFA); post-emergence, 360 h, Rate 250 g/ha, post-emergence, assessed visually 15 DAA, 100%=total damage, 0%=no damage, read-out: Post-emergence herbicidal activity (percentage phytotoxicity) AVEFA POST): 0%; pest or weed control at 250 g/ha (Avena fatua (AVEFA); pre-emergence, 480 h, Rate 250 g/ha, pre-emergence, assessed visually 20 DAA, 100%=total damage, 0%=no damage, read-out: Pre-emergence herbicidal activity (percentage phytotoxicity) AVEFA PRE): 0%; pest or weed control at 250 g/ha ([2]; post-emergence, 360 h, Rate 250 g/ha, post-emergence, assessed visually 15 DAA, 100%=total damage, 0%=no damage, read-out: Post-emergence herbicidal activity (percentage phytotoxicity) ALOMY POST): 30%; pest or weed control at 250 g/ha ([2]; pre-emergence, 480 h, Rate 250 g/ha, pre-emergence, assessed visually 20 DAA, 100%=total damage, 0%=no damage, read-out: Pre-emergence herbicidal activity (percentage phytotoxicity) ALOMY PRE): 0%; pest or weed control at 250 g/ha (Lolium perenne (LOLPE); post-emergence, 360 h, Rate 250 g/ha, post-emergence, assessed visually 15 DAA, 100%=total damage, 0%=no damage, read-out: Post-emergence herbicidal activity (percentage phytotoxicity) LOLPE POST): 70%; pest or weed control at 250 g/ha (Lolium perenne (LOLPE); pre-emergence, 480 h, Rate 250 g/ha, pre-emergence, assessed visually 20 DAA, 100%=total damage, 0%=no damage, read-out: Pre-emergence herbicidal activity (percentage phytotoxicity) LOLPE PRE): 70%
3 | Cc1cc(C)c(C2C(=O)CC(CC(=O)NCc3ccc(C(F)(F)F)cc3)C2=O)c(C)c1 (stereo not shown) [Compound B15] | 90% | 90% | 90% | 80% | 70% | 80% | 90% | 100% |  |  |  |  |  |  |  |  | 
4 | C=C(C)CNC(=O)CC1CC(=O)C(c2c(C)cc(-c3ccc(Cl)cn3)cc2C)C1=O (stereo not shown) [Compound B361] |  |  |  |  |  |  |  |  | 100% | 100% | 100% | 100% | 100% | 90% | 90% | 90% | 
5 | Cc1cc(-c2ccc(Cl)cn2)cc(C)c1C1C(=O)CC(CC(=O)NC/C=C/Cl)C1=O (stereo not shown) [Compound B372] |  |  |  |  |  |  |  |  | 100% | 100% | 100% | 100% | 90% | 90% | 90% | 100% | 
